≈ marks a conversion by molar mass, not a printed value. Like-named read-outs stand apart in the source and are kept apart here.
Assays:
[1] = system: Staphylococcus aureus SA-1199B; assay: MIC determination (broth microdilution) against SA-1199B; format: cell-based; details: SA1199B
Source text: (§1) In this study, the S. aureus strains SA‐1199B (overexpressing norA) and its isogenic parent SA‐1199 (wild type), the pair SA‐K1902 (norA‐depleted) and SA‐K2378 (complemented with a pCU1 plasmid harboring the norA promoting and coding region from SA‐1199B), were used to test EPI activity as described in a previous study. Furthermore, the S. aureus ATCC 29213 was used as the reference strain in MIC determination experiments.

[2] = system: S. aureus SA-K1902 (norA-); assay: MIC evaluation against SA-K1902; format: cell-based, Staphylococcus aureus; details: for MIC: Staphylococcus aureus
Source text: (§2) Conversely, interesting results were obtained against SA‐K2378, which overexpresses the norA gene (Table 2). […] This corroborates the hypothesis that their activity is strictly related to NorA EP inhibition.
as §1

[3] = system: S. aureus SA-K2378 (norA ++); assay: MIC evaluation against SA-K2378; format: cell-based, Staphylococcus aureus; details: for MIC: Staphylococcus aureus
Source text: as §2, §1

[4] = system: Staphylococcus aureus SA-K2378 biofilm; format: cell-based
Source text: The formation of biofilms is a significant contributor to the development of AMR [1, 26, 27]. This is due to the fact that biofilms provide a protective environment for bacteria, thereby rendering them more resilient to the effects of common antibacterial agents. Over the years, several investigations have been conducted to study the role of EPs in the various stages of microbial biofilm formation. However, a definitive answer regarding the potential role of EPs in this microbial pathway remains elusive. While some studies have reported a negative effect of certain EPs on biofilm formation, others have highlighted the promising role of EPIs in limiting biofilm formation and enhancing the efficacy of antibiotics under biofilm conditions.
The biofilm production by SA‐K1902 and SA‐K2378 strains was analyzed in flat 96‐well microtiter plates as previously described, with some modifications. […] The microplates were incubated at 37°C for 24 h in static conditions. After incubation, the biofilms were washed three times with distilled water, dried at 60°C for 1 h, and stained with 0,1% crystal violet for 10 min. After staining, the crystal violet was removed and the wells were washed three times with water, dried at 37°C for 30 min, and the bound crystal violet was solubilized with 96% ethanol in shaking conditions. At the end of the destaining, the absorbance (570 nm) of the solutions in each well was measured using the FLUOstar Omega plate reader (BMG‐LABTECH, Germany) to quantify the biofilm produced in each condition compared with the control (biofilm produced by the strain without any compound/antibiotic). Biofilm assays were performed in triplicate for each condition.

[5] = molecular target: T1, S. aureus NorA efflux pump (SA-1199B strain, overexpresses the norA gene) (Staphylococcus aureus, UniProt P0A0J7); assay: EtBr efflux inhibition assay; format: cell-based; details: for inhibition at 10 µM: read-out: EtBr efflux inhibition (%), compound at 10 µM, SA-1199B; for inhibition at 50 µM: read-out: EtBr efflux inhibition (%), compound at 50 µM, SA-1199B
T1 construct: endogenous in cells; host or cells: S. aureus SA-1199B (overexpresses norA; isogenic parent SA-1199)
T1 sequence (P0A0J7 whole entry): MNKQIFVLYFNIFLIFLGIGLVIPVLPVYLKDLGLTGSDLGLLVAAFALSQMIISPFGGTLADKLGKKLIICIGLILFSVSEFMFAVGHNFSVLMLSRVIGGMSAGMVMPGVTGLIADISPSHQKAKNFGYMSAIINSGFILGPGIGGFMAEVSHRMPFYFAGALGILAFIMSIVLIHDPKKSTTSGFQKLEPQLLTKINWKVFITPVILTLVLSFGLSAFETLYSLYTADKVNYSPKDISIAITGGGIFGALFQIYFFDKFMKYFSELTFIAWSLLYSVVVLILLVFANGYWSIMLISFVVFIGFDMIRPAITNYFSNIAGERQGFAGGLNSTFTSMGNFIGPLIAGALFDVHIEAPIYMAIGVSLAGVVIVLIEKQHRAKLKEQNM
Procedure: EtBr efflux inhibition assays were conducted using the S. aureus SA‐1199B strain, which overexpresses the norA gene and has an A116E GrlA substitution. Each compound was tested at 50 µM (see Figure 2). The starting hit compound 1 was used as the internal standard for comparison with the previously reported data.
The cells were grown overnight in cation‐supplemented Mueller–Hinton broth (CAMHB) without any additives at 35°C. The organisms were subsequently diluted into CAMHB to obtain an optical density at 600 nm (OD600) of 0.7–0.8. Subsequently, the cells were pelleted and resuspended at an OD600 of 0.8 in 0.5 mL aliquots of CAMHB containing EtBr and carbonyl cyanide m‐chlorophenylhydrazone (CCCP) to “load” the cells with EtBr (final concentrations of 25 μM for EtBr and 100 μM for CCCP). Following 20 min of incubation at room temperature, the cells were pelleted and resuspended in 1 mL of fresh CAMHB. Immediately thereafter, 200 μL aliquots were transferred into the wells of white 96‐well plates, which either lacked or contained 50 or 10 μM of each test compound. Fluorescence was monitored continuously using a microplate reader (Infinite M200 Pro, TECAN) at excitation and emission wavelengths of 485 and 645 nm, respectively, for a period of 5 min. The experiments were conducted in triplicate, with two technical replicates per biological replicate. The efflux activity of the SA‐1199B strain was expressed as a percentage of fluorescence decrease over a 5‐min time course. The inhibition of this efflux by the test compounds was determined using the following equation: ([efflux in the absence] ‐ [efflux in the presence of test [compound])/[efflux in the absence of test compound] × 100, which yielded the percent efflux inhibition observed.
^a Experiments were performed in triplicate with two technical replicates per biological replicate. Efflux activity of SA-1199B was expressed as percent fluorescence decrease over a 5 min time course. Inhibition of this efflux by test compounds was determined using the equation [efflux in the absence] − [efflux in the presence of test [compound]/[efflux in the absence of test compound] × 100, giving the percent efflux inhibition observed.

[6] = MTT cytotoxicity assay on A549; format: cell-based; details: human, A549 cells, read-out: Cytotoxicity (% cell viability)
Procedure: (§3) The MTT assay was performed on two human ATCC cell lines, that is, […] (CCL‐185) and MCF7 (HTB‐22), to test the potential cytotoxic effect of the compounds, after 72 h exposure, as previously described. Each compound was tested at concentrations ranging from 12.5 to 100 μg/mL. Untreated cells were considered as controls. The percentage of viable cells was calculated as follows: % Cell viability = 100 × treated well absorbance/untreated control well absorbance. All assays were performed once in technical quadruplicate.

[7] = system: S. aureus SA-K2378 (norA ++); assay: Checkerboard assay EPI/CPX against SA-K2378; format: cell-based, Staphylococcus aureus
Procedure: as §2
(§4) Checkerboard assays were carried out using SA‐K1902 and SA‐K2378 strains according to standard procedures.

[8] = system: Staphylococcus aureus SA-1199B; format: cell-based
Source text: For purposes of comparison, compound 1 was included as a reference.

[9] = system: S. aureus SA-K1902 (norA-); assay: Checkerboard assay EPI/CPX against SA-K1902; format: cell-based, Staphylococcus aureus
Procedure: as §4

[10] = MTT cytotoxicity assay on MCF7; format: cell-based; details: human, MCF7 cells, read-out: Cytotoxicity (% cell viability)
Procedure: as §3

[11] = system: S. aureus SA-1199 (wild type); assay: Synergistic assay with CPX against wild-type SA-1199; format: cell-based, Staphylococcus aureus; details: EPI at 3.13 µg/mL with CPX
Source text: (§5) This finding aligns with their mechanism of action, which involves the inhibition of NorA, which is only basally expressed in the wild‐type SA‐1199 strain.

[12] = system: S. aureus SA-1199 (wild type); assay: MIC determination against wild-type SA-1199; format: cell-based; details: Staphylococcus aureus, compound alone
Source text: as §5

Structure (SMILES) | MIC [1] [µg/mL] | inhibition at 10 µM [5] [%] | inhibition at 50 µM [5] [%] | MIC [2] [µg/mL] | MIC [3] [µg/mL] | CPX MIC ([7]; EPI at 0.8 µg/mL) [µg/mL] | N° CPX MIC reduction ([7]; EPI at 0.8 µg/mL) | CPX MIC ([7]; EPI at 1.6 µg/mL) [µg/mL] | N° CPX MIC reduction ([7]; EPI at 1.6 µg/mL) | CPX MIC ([7]; EPI at 3.13 µg/mL) [µg/mL] | N° CPX MIC reduction ([7]; EPI at 3.13 µg/mL) | N° fold CPX MIC reduction ([8]; EPI at 3.12 µg/mL) [fold] | N° fold CPX MIC reduction ([8]; EPI at 12.5 µg/mL) [fold] | CPX MIC ([9]; EPI at 0.8 µg/mL) [µg/mL] | N° CPX MIC reduction ([9]; EPI at 0.8 µg/mL) | CPX MIC ([9]; EPI at 1.6 µg/mL) [µg/mL] | N° CPX MIC reduction ([9]; EPI at 1.6 µg/mL) | CPX MIC ([9]; EPI at 3.13 µg/mL) [µg/mL] | N° CPX MIC reduction ([9]; EPI at 3.13 µg/mL) | further results
O=C(O)c1cn(C2CC2)c2cc(N3CCNCC3)c(F)cc2c1=O [CPX, ciprofloxacin, reference compound] | 10 (≈ 30.2 µM) |  |  |  |  |  |  |  |  |  |  |  |  |  |  |  |  |  |  | CPX MIC ([2]; CPX alone, SA-K1902 (norA-)): 0.15 µg/mL; CPX MIC ([3]; CPX alone, SA-K2378 (norA ++)): 1.25 µg/mL; increase in biofilm formation ([4]; CPX alone at ½ MIC, vs untreated control): 42%
O=[N+]([O-])c1ccc(-n2nc(-c3ccc(Cl)cc3)c3c2-c2ccccc2S(=O)(=O)N3)cc1 [Compound 1, reference compound] | 50 (≈ 110 µM) | 0 | 77 | 12.5 (≈ 27.6 µM) | 12.5 (≈ 27.6 µM) | 0.6 | 2 | 0.3 | 4 | 0.3 | 4 | 2 | 16 | 0.15 | 0 | 0.15 | 0 | 0.15 | 0 | viability at 72 h, 12.5 µg/mL ([6]; A549, 12.5 μg/mL): 90 ± 16%; viability at 72 h, 25 µg/mL ([6]; A549, 25 μg/mL): 76 ± 1%; viability at 72 h, 50 µg/mL ([6]; A549, 50 μg/mL): 32 ± 5%; viability at 72 h, 100 µg/mL ([6]; A549, 100 μg/mL): 8 ± 1%; N° fold CPX MIC reduction ([8]; EPI at 6.25 µg/mL): 8 fold; viability at 72 h, 12.5 µg/mL ([10]; MCF7, 12.5 μg/mL): 81 ± 6%; viability at 72 h, 25 µg/mL ([10]; MCF7, 25 μg/mL): 71 ± 3%; viability at 72 h, 50 µg/mL ([10]; MCF7, 50 μg/mL): 50 ± 3%; viability at 72 h, 100 µg/mL ([10]; MCF7, 100 μg/mL): 43 ± 3%
CN1c2c(-c3ccc(F)cc3)nn(C)c2-c2ccc(OCCN3CCOCC3)cc2S1(=O)=O [Compound 19, 3‐(4‐Fluorophenyl)‐1,4‐dimethyl‐7‐(2‐morpholin‐4‐ylethoxy)‐1,4‐dihydropyrazolo[4,3‐c][1,2]benzothiazine 5,5‐dioxide] | > 50 | 34 | > 70 | > 50 | 25 (≈ 52.9 µM) | 0.3 | 4 | 0.3 | 4 | 0.3 | 4 | 2 | 4 | 0.08 | 2 | 0.08 | 2 | 0.08 | 2 | synergistic effect with CPX [11]: did not show any synergistic effect; CPX MIC ([7]; EPI at 0.2 µg/mL): 0.3 µg/mL; N° CPX MIC reduction ([7]; EPI at 0.2 µg/mL): 4; CPX MIC ([7]; EPI at 0.4 µg/mL): 0.3 µg/mL; N° CPX MIC reduction ([7]; EPI at 0.4 µg/mL): 4; CPX MIC ([7]; EPI at 6.25 µg/mL): 0.16 µg/mL; N° CPX MIC reduction ([7]; EPI at 6.25 µg/mL): 8; CPX MIC ([9]; EPI at 0.2 µg/mL): 0.08 µg/mL; N° CPX MIC reduction ([9]; EPI at 0.2 µg/mL): 2; CPX MIC ([9]; EPI at 0.4 µg/mL): 0.08 µg/mL; N° CPX MIC reduction ([9]; EPI at 0.4 µg/mL): 2; CPX MIC ([9]; EPI at 6.25 µg/mL): 0.08 µg/mL; N° CPX MIC reduction ([9]; EPI at 6.25 µg/mL): 2; CPX MIC ([9]; EPI at 12.5 µg/mL): 0.15 µg/mL; N° CPX MIC reduction ([9]; EPI at 12.5 µg/mL): 0; effect on biofilm formation in combination with CPX ([4]; EPI at 0.2 µg/mL combined with CPX, SA-K2378): no positive effects; MIC [12]: > 50 µg/mL

From article PMC12089509, “NorA Efflux Pump Inhibitors: Expanding SAR Knowledge of Pyrazolo[4,3‐c][1,2]benzothiazine 5,5‐Dioxide Derivatives” (Archiv Der Pharmazie, 2025)
